The values that follow come from PMC7933930, “Development of a small molecule that corrects misfolding and increases secretion of Z α1‐antitrypsin” (EMBO Molecular Medicine, 2021).

Structures are written as SMILES. Converted amounts (≈) assume the structure as drawn. Where two headings read alike, the source gives them in different places.

One series addresses Kv1.5 (Homo sapiens, UniProt P22460). Nature of the series: Off‐target panel: Kv1.5. In kind it is cell-based. Conditions: Blocker, read-out: Mean (PXC50). As to the method: GSK716 selectivity and PK properties were profiled in order to investigate the suitability of GSK716 for progression into in vivo studies and the potential for taking it forward as a clinical candidate for testing in humans. Since GSK716 results in loss of inhibitory activity of α1‐antitrypsin, the effect of the compound was assessed on other closely related serpins. […] Furthermore, there were no off‐target effects in a panel of assays considered predictive of known safety liabilities that precluded further development of GSK716 (Table EV1).

Series [1] concerns Z α1‐antitrypsin secretion in iPSC‐derived human hepatocytes (ZZ genotype). Nature of the series: Secretion of Z α1‐antitrypsin from ZZ iPSC‐derived human hepatocytes. Type of series: cell-based. To be noted: for EC50: Hepatocyte. The protocol: The ability of GSK716 to block Z α1‐antitrypsin polymerisation in the ER during folding was assessed by adding GSK716 to CHO‐TET‐ON‐Z‐A1AT cells (Ordóñez et al, 2013) with simultaneous induction of Z α1‐antitrypsin expression using doxycycline. […] Similar potency between the effects on secretion and polymerisation was observed throughout members of the lead series supporting the hypothesis that these effects are caused by the same pharmacological mode of action.
Figure 2 GSK716 inhibits polymerisation of Z α1‐antitrypsin in cell models of disease • A GSK716 was added to CHO‐TET‐ON‐Z‐A1AT cells (Ordóñez et al, 2013) with simultaneous induction of Z α1‐antitrypsin expression using doxycycline, and polymer load was quantified with the 2C1 monoclonal antibody that is specific to pathological polymers of α1‐antitrypsin (Miranda et al, 2010). […] Data were normalised to vehicle and a control compound from the GSK716 series at saturating concentration. […] It induced an approximately threefold increase in secreted levels of Z α1‐antitrypsin compared with vehicle control. […] For every time point, NP‐40‐soluble and NP‐40‐insoluble fractions were separated and immunoprecipitated with the 2C1 mAb and resolved by 4–12% w/v SDS–PAGE and α1‐antitrypsin detected by immunoblotting. […] Cell viability was measured by Cell Counting Kit‐8. […] Samples were resolved by 4–12% w/v acrylamide SDS–PAGE and detected by autoradiography. • H The graphs show the effect of GSK716 on intracellular and extracellular Z α1‐antitrypsin (mean ± SEM, n = 2).
The accumulation and clearance of Z α1‐antitrypsin polymer was measured with the 2C1 monoclonal antibody that is specific for polymerised antitrypsin in CHO‐TET‐ON‐Z‐α1AT cells (Ordóñez et al, 2013) and iPSC‐derived hepatocytes generated from a patient with a PiZZ genotype (Yusa et al, 2011). Secretion of Z α1‐antitrypsin was determined by TR‐FRET. Cell viability was analysed with Cell Counting Kit‐8 (Sigma) after treating the cells with 10 µM GSK716 or 0.1% v/v DMSO (vehicle) and an increasing concentration of tunicamycin (0.8–0.01 µg/ml).

A short description of a further series: Solubility in FaSSIF. Type of series: physicochemical. Conditions: amorphous, read-out: solubility of amorphous drug substance in FaSSIF.
A further series has as its target antithrombin (Homo sapiens, UniProt P01008). The experiment in a line: Inhibitory activity of antithrombin against thrombin. In kind it is biochemical. As to the method:
Figure 5 The effect of GSK716 on serpin inhibitory activity • α1‐Antitrypsin was incubated at varying molar ratios with the model protease bovine α‐chymotrypsin, and the residual protease activity determined. The intercept of the regression with the abscissa reflects the number of molecules of α1‐antitrypsin required to inhibit one molecule of chymotrypsin in the presence (+c) and absence (−c) of 50µM GSK716. Error bars reflect ± SEM of three independent experiments. • M α1‐antitrypsin was incubated with different molar ratios of chymotrypsin and resolved by SDS–PAGE. The position of covalent α1‐antitrypsin‐chymotrypsin complex (cpx), native (nat) and cleaved (clv) is shown. • The inhibitory activity of α1‐antichymotrypsin against chymotrypsin (ach + chym), neuroserpin against trypsin (neus + tryp), and antithrombin against thrombin (atiii + thrombin) was determined in the presence and absence of GSK716. Error bars reflect ± SD of two independent experiments.
GSK716 selectivity and PK properties were profiled in order to investigate the suitability of GSK716 for progression into in vivo studies and the potential for taking it forward as a clinical candidate for testing in humans. Since GSK716 results in loss of inhibitory activity of α1‐antitrypsin, the effect of the compound was assessed on other closely related serpins. […]

Sequence of Kv1.5 (P22460 whole entry): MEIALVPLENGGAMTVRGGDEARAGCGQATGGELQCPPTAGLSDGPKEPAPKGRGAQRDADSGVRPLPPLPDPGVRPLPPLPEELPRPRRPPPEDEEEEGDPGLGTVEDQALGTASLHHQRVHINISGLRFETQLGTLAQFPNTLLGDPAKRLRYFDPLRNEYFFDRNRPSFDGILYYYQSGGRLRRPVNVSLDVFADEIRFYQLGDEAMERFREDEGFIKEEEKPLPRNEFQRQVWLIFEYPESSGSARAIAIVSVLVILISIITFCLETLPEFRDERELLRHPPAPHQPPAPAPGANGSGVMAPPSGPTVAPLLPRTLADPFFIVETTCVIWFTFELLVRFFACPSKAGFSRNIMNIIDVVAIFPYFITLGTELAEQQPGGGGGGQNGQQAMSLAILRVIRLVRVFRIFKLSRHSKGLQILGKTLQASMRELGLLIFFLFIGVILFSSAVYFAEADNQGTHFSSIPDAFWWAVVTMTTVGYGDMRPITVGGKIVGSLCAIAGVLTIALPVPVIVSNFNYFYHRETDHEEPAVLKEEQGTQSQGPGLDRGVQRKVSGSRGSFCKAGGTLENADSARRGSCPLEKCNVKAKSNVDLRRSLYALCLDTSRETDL
Sequence of antithrombin (P01008 33-464): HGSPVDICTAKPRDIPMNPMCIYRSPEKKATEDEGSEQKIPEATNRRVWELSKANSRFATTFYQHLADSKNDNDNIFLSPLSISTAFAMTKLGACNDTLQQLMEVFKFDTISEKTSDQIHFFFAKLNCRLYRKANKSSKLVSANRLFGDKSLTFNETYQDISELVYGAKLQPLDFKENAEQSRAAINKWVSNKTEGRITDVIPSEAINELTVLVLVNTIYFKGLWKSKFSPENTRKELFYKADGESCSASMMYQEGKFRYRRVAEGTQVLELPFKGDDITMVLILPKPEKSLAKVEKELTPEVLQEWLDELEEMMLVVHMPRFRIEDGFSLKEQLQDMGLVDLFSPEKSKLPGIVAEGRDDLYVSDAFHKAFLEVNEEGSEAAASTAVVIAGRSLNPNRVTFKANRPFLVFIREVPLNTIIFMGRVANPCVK

A word on the solubility: it is the concentration that dissolves in the medium under given conditions. For `CCC[C@@H](NC(=O)c1cccc2c1CC(=O)N2)[C@@H](O)c1cccc(F)c1C` [GSK716], the IC50 on Kv1.5 is over 50100 nM. The EC50 is 316 nM in series [1] (ZZ iPSC‐derived human hepatocytes, n = 14, read-out: mean pEC50, secretion (converted)) and 300 nM in series [1] (Homo sapiens, as quoted for the PK‐PD target concentration, cell system not stated there, read-out: cellular secretion assay EC50). Further, in series [1] (ZZ iPSC‐derived human hepatocytes), the “increase in secreted levels of Z α1‐antitrypsin compared with vehicle control” value was “approximately threefold”. Also, the solubility in the series “Solubility in FaSSIF” turned out to be 969 µg/mL (≈ 2620 µM). Besides, the “inhibitory activity of antithrombin towards its cognate protease” value against antithrombin is “did not affect”.
